# Experimental data taken from US20050148632A1, “Therapeutic agent for intestinal diseases and visceral pain” (priority 2002, published 2005).
# Tested on: 5-hydroxytryptophan (5-HTP)-induced defecation models of mice
# Test: Effect on 5-hydroxytryptophan (5-HTP)-induced defecation models of mice in vivo
# Conditions: male SLC:ICR mice; 30 mg/kg orally, 30 minutes before 10 mg/kg 5-HTP s.c.; stool scored during 30 minutes
# Procedure: Effect on 5-hydroxytryptophan (5-HTP)-induced defecation models of mice in vivo:
# The tests were conducted by using (R)-3-(2-(2-(4-methylpiperidine-1-yl)-ethyl)pyrrolidine-1-sulfonyl)phenol (synthesized according to a method described in WO 97/48681) known to be a selective 5-HT7 receptor antagonist as test compound 1 by a method of G. J. Sanger et al. (British Journal of Pharmacology, 130: 706-712, 2000).
# Male SLC:ICR mice (6 weeks) were placed in a series of 5 stainless steel cages for mice. After the acclimation for one hour or longer, 30 mg/kg of test compound 1 was orally administered to them (n=10). 30 minutes after, 10 mg/5mL/kg of 5-HTP (or 5 mL/kg of physiological saline in a group in which 5-HTP was not used) was subcutaneously administered to the mice . The stool excreted by each mouse during 30 minutes after the administration was observed (the results were scored as follows: 0: normal stool or no defecation, 1: diarrhea or soft stool). The inhibitory rate (%) of test compound 1 was calculated while the score obtained by subtracting the score of the 5-HTP-free group from the score of the 5-HTP group was determined to be 100%.
smiles,measurement,value
"CC1CCN(CC[C@H]2CCCN2S(=O)(=O)c2cccc(O)c2)CC1 [test compound 1, (R)-3-(2-(2-(4-methylpiperidine-1-yl)-ethyl)pyrrolidine-1-sulfonyl)phenol]",control rate (inhibitory rate of 5-HTP-induced diarrhea/soft stool score),70%
